Data on one compound can be found in patent US9211278B2, “Composition containing arylnaphthalene lignan derivative for preventing and/or treating dementia” (KOREA INSTITUTE OF SCIENCE AND TECHNOLOGY, priority 2012, dated 2015).

For this test, the system named is APP endocytosis. Description: APP endocytosis rate (confocal microscopy, reversible biotinylation). Type of test: cell-based, human. On the procedure:
To test the endocytosis rate of App, 5×10^5 cells of HeLa cell line transfected with amyloid precursor protein (APP) as the substantially same method as Experimental Examples 6 and 7, seeded on poly-D-lysine coated cover glass and incubated for 24 hours. Then, 1 uM Justicidin A and APP antibody (1:100 diluted, SIG-39320, Covance) treated for 45 min at 4° C., washed out to remove free APP antibodies with culture fluid at three times. The cells were incubated at 37° C., starting endocytosis temperature, for 10, 30, and 60 min, and fixed by 4% paraformaldehyde for 15 min. Then, the cells were permeabilized by 0.1% triton X-100 for 5 min, and APP was marked by secondary fluorescent-labeled antibody (1:200 diluted, A11001, Invitrogen).
The change in the location of APP at various times was measured by confocal microscopy (LSM510, Zeiss, Germany) at 488 nm. […] (0 min). The endocytosis started at 37° C. […]
APP fluorescent intensity remained in plasma membrane compared to APP fluorescent intensity in plasma membrane at 0 min was measured.
For quantitative measurement of APP endocytosis rate, a reversible biotinylation method was used. […]
The result of western blotting was measured by band intensity to show the amount of intracellular APP (FIG. 10b; % internalization) with respect to total maAPP on the cell membrane (FIG. 10a).

Consider `COc1cc2c(OC)c3c(c(-c4ccc5c(c4)OCO5)c2cc1OC)C(=O)OC3` [Justicidin A], for which the “APP endocytosis (reversible biotinylation)” value (1 uM pre-treated, 5, 10, 30 min at 37° C.) is on record as “showed reduced endocytosis of APP”. For the setting “1 uM pre-treatment, confocal microscopy, 10, 30, 60 min at 37° C.”, the “APP endocytosis (APP fluorescent intensity remaining in plasma membrane)” value was “APP endocytosis was delayed”.
